Results as given in US11352354B2, “Substituted penta-fused hexa-heterocyclic compounds, preparation method therefor, drug combination and use thereof” (Xiamen University, priority 2017, dated 2022).

Tested on: MDA-MB-231 cells
Assay: Vacuolation of MDA-MB-231 cells caused by inhibition of compounds on PIKfyve (microscopy)
Format: cell-based
Settings: MDA-MB-231 cells
Description: I. Determination of Vacuolation of MDA-MB-231 Cells Caused by Inhibition of Compounds on PIKfyve
When the activity of pikfyve kinase is inhibited, vacuoles will be produced in cytoplasm. By observing the number of vacuoles under a microscope, the ability of compounds to inhibit the activity of pikfyve kinase can be known.
1. Cell plating: cells in logarithmic growth phase were made into a single cell suspension, counted with a cell counter and diluted to a cell concentration of about 2×10^5/mL. Then, the cells were inoculated into a 12-well plate, and cultured in a 37° C., 5% CO2 incubator.
3. Vacuolation test: after 24 and 48 hours of culture, photos were taken under an […] to observe the degree of vacuolation.
(In the table, “+” represents the degree of vacuolation; more “+” indicates more obvious vacuolation; “−” represents no vacuolation)

Structure (SMILES)	degree of vacuolation, 1 μM, 24 h	degree of vacuolation, 1 μM, 48 h	degree of vacuolation, 10 μM, 24 h	degree of vacuolation, 10 μM, 48 h
Cc1ccc(C(=O)Nc2cccc(OC(F)(F)F)c2)cc1Nc1nc(-c2ccncc2)nc2[nH]cnc12 [IV-a-7]	−	−	+	++
Cc1ccc(NC(=O)c2cccc(C(F)(F)F)c2)cc1Nc1nc(-c2ccncc2)nc2ccn(C)c12 [V-b-2]	−	−	++	++
Cc1ccc(C(=O)Nc2ccc(CN3CCN(C)CC3)c(C(F)(F)F)c2)cc1Nc1nc(-c2ccncc2)nc2[nH]cnc12 [IV-a-5]	+	−	+	−
Cc1ccc(NC(=O)c2cccc(C(F)(F)F)c2)cc1Nc1nc(-c2ccncc2)nc2cc[nH]c12 [V-a-4]	−	−	−	−
Cc1ccc(C(=O)Nc2cccc(C(F)(F)F)c2)cc1Nc1cc(-c2ccncc2)nc2[nH]ccc12 [I-a-21]	−	−	−	−
Cc1ccc(C(=O)Nc2ccc(CN3CCN(C)CC3)c(C(F)(F)F)c2)cc1Nc1nc(-c2cccnc2)nc2ccn(C)c12 [V-b-7]	+	+	−	−
Cc1ccc(C(=O)Nc2cccc(OC(F)(F)F)c2)cc1Nc1cc(-c2cccnc2)nc2[nH]ccc12 [I-a-33]	+	++	+	++
Cc1ccc(C(=O)Nc2ccc(CN3CCN(C)CC3)c(C(F)(F)F)c2)cc1Nc1nc(-c2ccncc2)nc2c1ncn2C [IV-b-10]		−		−
Cc1cn(-c2cc(NC(=O)c3ccc(C)c(Nc4nc(-c5cccnc5)nc5cc[nH]c45)c3)cc(C(F)(F)F)c2)cn1 [V-a-7]	−	−	+	+
Cc1ccc(C(=O)Nc2cccc(OC(F)(F)F)c2)cc1Nc1nc(-c2cccnc2)nc2c1ncn2C [IV-b-11]	+	+		+
CN1CCN(Cc2cc(NC(=O)c3cccc(Nc4cc(-c5cccnc5)nc5[nH]ccc45)c3)cc(C(F)(F)F)c2)CC1 [I-a-26]	−	−	−	−
Cc1cccc(NC(=O)c2ccc(C)c(Nc3cc(-c4cccnc4)nc4[nH]ccc34)c2)c1 [I-a-34]	+	++	+	++
CN1CCN(Cc2cc(NC(=O)c3cccc(Nc4cc(-c5ccncc5)nc5[nH]ccc45)c3)cc(C(F)(F)F)c2)CC1 [I-a-27]	+	−	+	−
COc1cccc(NC(=O)c2ccc(C)c(Nc3cc(-c4cccnc4)nc4[nH]ccc34)c2)c1 [I-a-32]	+	++	+	++
Cc1cn(-c2cc(NC(=O)c3ccc(C)c(Nc4nc(-c5ccncc5)nc5cc[nH]c45)c3)cc(C(F)(F)F)c2)cn1 [V-a-8]	+	+	++	++
Cc1ccc(C(=O)Nc2cccc(Cl)c2)cc1Nc1cc(-c2cccnc2)nc2[nH]ccc12 [I-a-35]	+	++	+	++

Structure (SMILES)	degree of vacuolation, 1 μM, 24 h	degree of vacuolation, 1 μM, 48 h	degree of vacuolation, 10 μM, 24 h	degree of vacuolation, 10 μM, 48 h
COc1ccc(Br)cc1NC(=S)Nc1cccc(-c2nc(NCc3cccnc3)c3c(ccn3C)n2)c1 [V-b-30]	−	−	+	+
Cc1ccc(C(=O)Nc2ccc(CN3CCN(C)CC3)c(C(F)(F)F)c2)cc1Nc1nc(-c2ccncc2)nc2cc[nH]c12 [V-a-10]	++	++	−	−
Cc1ccc(NC(=O)c2ccc(CN3CCOCC3)c(C(F)(F)F)c2)cc1Nc1nc(-c2cccnc2)cn2c(Br)cnc12 [VI-b-6]	−	−	−	−
Cc1ccc(C(=O)Nc2cccc(C(F)(F)F)c2)cc1Nc1nc(-c2cccnc2)nc2ccn(C)c12 [V-b-3]	+	+	++	++
Cc1ccc(C(=O)Nc2ccc(CN3CCN(C)CC3)c(C(F)(F)F)c2)cc1Nc1cc(-c2cccnc2)nc2c1ccn2C [I-b-5]	−	−	+	+
Cc1cc(NC(=O)c2ccccc2N)ccc1Nc1nc(-c2cccnc2)c2[nH]ccc2n1 [V-c-25]	−	−	−	−
Cc1ccc(C(=O)Nc2ccc(CN3CCN(C)CC3)c(C(F)(F)F)c2)cc1Nc1cc(-c2cccnc2)nc2[nH]ccc12 [I-a-24]	−	−	−	−
Cc1cc(NS(=O)(=O)c2ccccc2)ccc1Nc1nc(-c2cccnc2)c2[nH]ccc2n1 [V-c-35]	−	−	+	+
Cc1ccc(C(=O)Nc2cccc(C(F)(F)F)c2)cc1Nc1nc(-c2ccccc2)nc2c1cnn2C [III-b-2]	−	−	−	−
Cc1ccc(C(=O)Nc2ccc(CN3CCN(C)CC3)c(C(F)(F)F)c2)cc1Nc1nc(-c2cccnc2)nc2c1ncn2C [IV-b-9]		−		−
Cc1cc(NC(=O)c2ccc(C)c(Nc3cc(-c4cccnc4)nc4[nH]ccc34)c2)n(C)n1 [I-a-45]	−	+	+	+
O=C(Nc1cccc(C(F)(F)F)c1)c1cccc(Nc2cc(-c3cccnc3)nc3[nH]ccc23)c1 [I-a-30]	+	+	+	+
Cc1ccc(NC(=O)c2cccc(C(F)(F)F)c2)cc1Nc1nc(-c2cccnc2)nc2cc[nH]c12 [V-a-3]	++	++	+	+
Cc1ccc(C(=O)Nc2ccc(CN3CCN(C)CC3)c(C(F)(F)F)c2)cc1Nc1nc(-c2ccncc2)cn2ccnc12 [VI-a-8]		−		−
Nc1ccc(NC(=O)c2cccc(Nc3nc(-c4cccnc4)c4[nH]ccc4n3)c2)cc1 [V-c-3]	+	+	++	++
